The target of series [1] is Menin/MLL (terbium chelate-labeled menin, FITC-MBM1 peptide) (Homo sapiens (Human), UniProt O00255). Put plainly: Menin/MLL homogenous time-resolved fluorescence (HTRF) assay. The format is binding. The note with it: 30 min incubation of compound with labeled menin. As for the experimental part: To an untreated, white 384-well microtiter plate was added 40 nL 200× test compound in DMSO and 4 μL 2× terbium chelate-labeled menin (vide infra for preparation) in assay buffer (40 mM Tris·HCl, pH 7.5, 50 mM NaCl, 1 mM DTT (dithiothreitol) and 0.05% Pluronic F-127). After incubation of test compound and terbium chelate-labeled menin for 30 min at ambient temperature, 4 μL 2×FITC-MBM1 peptide (FITC-β-alanine-[…]-NH2) (“FITC” means fluorescein isothiocyanate) in assay buffer was added, the microtiter plate centrifuged at 1000 rpm for 1 min and the assay mixtures incubated for 15 min at ambient temperature. The relative amount of menin-FITC-MBM1 complex present in an assay mixture is determined by measuring the homogenous time-resolved fluorescence (HTRF) of the terbium/FITC donor/acceptor fluorphore pair using an EnVision microplate reader (ex. 337 nm/terbium em. 490 nm/FITC em. 520 nm) at ambient temperature. The degree of fluorescence resonance energy transfer (the HTRF value) is expressed as the ratio of the fluorescence emission intensities of the FITC and terbium fluorophores (F^em 520 nm/F^em 490 nm). […]
Menin/MLL (terbium chelate-labeled menin, FITC-MBM1 peptide), sequence (O00255 other isoform, or with tags, fused parts or gaps): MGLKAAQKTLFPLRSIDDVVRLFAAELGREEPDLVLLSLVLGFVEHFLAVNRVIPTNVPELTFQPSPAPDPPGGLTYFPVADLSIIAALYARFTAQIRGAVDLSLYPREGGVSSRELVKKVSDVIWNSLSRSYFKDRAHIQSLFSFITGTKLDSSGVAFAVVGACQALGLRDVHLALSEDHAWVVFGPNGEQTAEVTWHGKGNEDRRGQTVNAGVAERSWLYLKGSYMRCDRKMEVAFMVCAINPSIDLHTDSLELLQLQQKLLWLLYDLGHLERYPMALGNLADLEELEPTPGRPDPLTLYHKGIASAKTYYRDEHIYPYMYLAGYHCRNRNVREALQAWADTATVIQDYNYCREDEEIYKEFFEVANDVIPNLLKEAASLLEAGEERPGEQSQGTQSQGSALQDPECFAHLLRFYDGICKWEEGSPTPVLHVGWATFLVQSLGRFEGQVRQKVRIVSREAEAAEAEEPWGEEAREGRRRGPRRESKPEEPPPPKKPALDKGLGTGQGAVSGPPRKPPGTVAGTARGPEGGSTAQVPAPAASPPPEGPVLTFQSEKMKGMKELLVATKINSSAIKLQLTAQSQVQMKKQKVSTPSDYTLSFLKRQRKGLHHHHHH
Compound potencies were determined by first calculating % inhibition at each compound concentration according to equation 1: […]

In another series the test system is MEIS1 mRNA expression. Put plainly: MEIS1 mRNA expression assay (Quantigene Singleplex) in MOLM14 cells. The format is cell-based, human. The note with it: 48 hours incubation. As for the experimental part:
MEIS1 mRNA expression upon treatment of compound was examined by Quantigene Singleplex assay (Thermo Fisher Scientific). This technology allows for direct quantification of mRNA targets using probes hybridizing to defined target sequences of interest and the signal is detected using a Multimode plate reader Envision (PerkinElmer). The MOLM14 cell line was used for this experiment. Cells were plated in 96-well plates at 3,750 cells/well in the presence of increasing concentrations of compounds. After incubation of 48 hours with compounds, cells were lysed in lysis buffer and incubated for 45 minutes at 55° C. Cell lysates were mixed with human MEIS1 specific capture probe or human RPL28 (Ribosomal Protein L28) specific probe as a normalization control, as well as blocking probes. Cell lysates were then transferred to the custom assay hybridization plate (Thermo Fisher Scientific) and incubated for 18 to 22 hours at 55° C. Subsequently, plates were washed to remove unbound materials followed by sequential addition of preamplifiers, amplifiers, and label probe. Signals (=gene counts) were measured with a Multimode plate reader Envision. IC50s were calculated by dose-response modelling using appropriate software. […] Fold changes were calculated by dividing the normalized values for the treated samples by the normalized values for the DMSO treated sample. […]

A further series relates to MOLM14 cells. Kind of series: Proliferation assay (spheroid assay) MOLM14. As to conditions: 8 days, MLL-AF9 cell line; read-out: spheroid assay_MOLM14 IC50. The format is cell-based, human. Here is the method: (§1) The anti-proliferative effect of menin/MLL protein/protein interaction inhibitor test compounds was assessed in human leukemia cell lines. The cell line MOLM14 harbors a MLL translocation and expresses the MLL fusion protein MLL-AF9, respectively, as well as the wildtype protein from the second allele. OCI-AML3 cells that carry the NPM1c gene mutation were also tested. […] KO-52 was used as a control cell line containing two MLL (KMT2A) wildtype alleles in order to exclude compounds that display general cytotoxic effects.
(§2) MOLM14 cells were cultured in RPMI-1640 (Sigma Aldrich) supplemented with 10% heat-inactivated fetal bovine serum (HyClone), 2 mM L-glutamine (Sigma Aldrich) and 50 μg/ml gentamycin (Gibco). […]
(§3) In order to assess the anti-proliferative effects, 200 MOLM14 cells, 200 OCI-AML3 cells or 300 KO-52 cells were seeded in 200 μl media per well in 96-well round bottom, ultra-low attachment plates (Costar, catalogue number 7007). […] Spheroid like growth was measured in real-time by live-cell imaging (IncuCyteZOOM, Essenbio, 4× objective) acquiring images at day 8. Confluence (%) as a measure of spheroid size was determined using an integrated analysis tool.
(§4) In order to determine the effect of the test compounds over time, the confluence in each well as a measure of spheroid size, was calculated. […]
(§5) Absolute IC50 values were calculated as percent change in confluence as follows: […]

In another series the test system is OCI-AML3 cells. Put plainly: Proliferation assay (spheroid assay) OCI-AML3. The format is cell-based, human. The note with it: 8 days, NPM1c mutated cell line; read-out: spheroid assay_OCI-AML3 IC50. Here is the method:
as §1, §2, §3, §4, §5

A further series relates to KO-52 cells. Put plainly: Proliferation assay (spheroid assay) KO-52 control cell line. The format is cell-based, human. The note with it: 8 days, MLL wildtype control cell line; read-out: spheroid assay_KO-52 IC50. As for the experimental part:
as §1, §2, §3, §4, §5

A short description of series [2]: Dynamic vapor sorption (DVS) moisture sorption analysis. The format is physicochemical. As to conditions: after 2 cycles of vapor adsorption/desorption. As for the experimental part:
The moisture sorption analysis (DVS) was performed using a ProUmid GmbH & Co. KG Vsorp Enhanced dynamic vapor sorption apparatus. The moisture profile was evaluated by monitoring vapor adsorption/desorption over the range of 0 to 90% relative humidity at 25° C. The sample weight equilibrium criteria were set at ≤0.010% change in 45 min with minimum and maximum time of acclimation at 50 min and 120 min, respectively. The moisture profile consisted of 2 cycles of vapor adsorption/desorption.

With `CC(=O)N1CCC(CN2CC[C@@H](Cc3cn(-c4ccc(F)cc4C(=O)N(C)C(C)C)c4cncc(C)c34)C2)CC1` [Compound 51a], the concentration for half-maximal inhibition (IC50) in series [1] worked out at 0.024 nM; with MEIS1 mRNA expression, 11 nM; in the series with MOLM14 cells, 13 nM; in the series on OCI-AML3 cells, 70 nM; with KO-52 cells it was 1200 nM. For the same compound, the “solid-state form stability after DVS test (XRPD)” value in series [2] is recorded as “No indication of a solid-state form change was observed”.

In general, IC50 refers to the concentration that inhibits the measured activity by half.

The record behind these values is US20250197392A1, “CRYSTALLINE FORMS OF AN INHIBITOR OF THE MENIN/MLL INTERACTION” (JANSSEN PHARMACEUTICA NV, priority 2022, published 2025).
